Assay results: patent US8829007B2 (priority 2009, dated 2014)
Where two headings read alike, the source gives them in different places.

Experiments:
[1] = system: influenza A virus (A/PR/8/34); experiment: microbe, parasite or virus in culture; format: cell-based; settings: class symbols, read-out: IC50 (mean all)
[2] = system: A/PR/8/34 influenza virus; experiment: microbe, parasite or virus in culture; format: cell-based; settings: class symbols, read-out: EC50 (mean all)
[3] = Influenza A virus, PR/8, MDCK, MDCK cells infected with A/PR/8/34, survival of infected cells
[4] = Influenza A virus, PR/8, MDCK, MDCK cells infected with A/PR/8/34, replication of influenza virus (viral RNA, bDNA)
[5] = MDCK cells infected with A/PR/8/34, survival of infected cells
[6] = MDCK cells infected with A/PR/8/34, replication of influenza virus (viral RNA, bDNA)
[7] = Influenza A virus, PR/8, MDCK, CPE assay, A/PR/8/34 infected MDCK cells
[8] = Influenza A virus, PR/8, MDCK, bDNA assay, A/PR/8/34 influenza virus replication in MDCK cells

SMILES	IC50 [1, 3]	EC50 [2, 4]	further results
COC(=O)N1CCOCC1CNc1nc(-c2c[nH]c3ncc(Cl)cc23)ncc1F (stereo not shown) [Compound 526, Methyl 3-((2-(5-chloro-1H-pyrrolo[2,3-b]pyridin-3-yl)-5-fluoropyrimidin-4-ylamino)methyl)morpholine-4-carboxylate]	5 to 20 µM	< 5 µM	–
CCOC(=O)N1CCOCC1CNc1nc(-c2c[nH]c3ncc(Cl)cc23)ncc1F (stereo not shown) [Compound 527, Ethyl 3-((2-(5-chloro-1H-pyrrolo[2,3-b]pyridin-3-yl)-5-fluoropyrimidin-4-ylamino)methyl)morpholine-4-carboxylate]	> 20 µM	> 10 µM	–
C=CCOC(=O)N1CCOCC1CNc1nc(-c2c[nH]c3ncc(Cl)cc23)ncc1F (stereo not shown) [Compound 528, Allyl 3-((2-(5-chloro-1H-pyrrolo[2,3-b]pyridin-3-yl)-5-fluoropyrimidin-4-ylamino)methyl)morpholine-4-carboxylate]	5 to 20 µM	> 10 µM	–
CC(C)C(=O)N1CCOCC1CNc1nc(-c2c[nH]c3ncc(Cl)cc23)ncc1F (stereo not shown) [Compound 529, 1-(3-((2-(5-chloro-1H-pyrrolo[2,3-b]pyridin-3-yl)-5-fluoropyrimidin-4-ylamino)methyl)morpholino)-2-methylpropan-1-one]	5 to 20 µM	> 10 µM	–
CC(C)(C)C(=O)N1CCOCC1CNc1nc(-c2c[nH]c3ncc(Cl)cc23)ncc1F (stereo not shown) [Compound 530, 1-(3-((2-(5-chloro-1H-pyrrolo[2,3-b]pyridin-3-yl)-5-fluoropyrimidin-4-ylamino)methyl)morpholino)-2,2-dimethylpropan-1-one]	> 20 µM	5 to 10 µM	–
O=C(C1CCC1)N1CCOCC1CNc1nc(-c2c[nH]c3ncc(Cl)cc23)ncc1F (stereo not shown) [Compound 531, (3-((2-(5-chloro-1H-pyrrolo[2,3-b]pyridin-3-yl)-5-fluoropyrimidin-4-ylamino)methyl)morpholino)(cyclobutyl)methanone]	5 to 20 µM	< 5 µM	–
CS(=O)(=O)N1CCOCC1CNc1nc(-c2c[nH]c3ncc(Cl)cc23)ncc1F (stereo not shown) [Compound 532, 2-(5-chloro-1H-pyrrolo[2,3-b]pyridin-3-yl)-5-fluoro-N-((4-(methylsulfonyl)morpholin-3-yl)methyl)pyrimidin-4-amine]	5 to 20 µM	< 5 µM	–
O=S(=O)(C1CC1)N1CCOCC1CNc1nc(-c2c[nH]c3ncc(Cl)cc23)ncc1F (stereo not shown) [Compound 533, 2-(5-chloro-1H-pyrrolo[2,3-b]pyridin-3-yl)-N-((4-(cyclopropylsulfonyl)morpholin-3-yl)methyl)-5-fluoropyrimidin-4-amine]	5 to 20 µM	< 5 µM	–
NC(=O)N1CCOCC1CNc1nc(-c2c[nH]c3ncc(Cl)cc23)ncc1F (stereo not shown) [Compound 534, 3-((2-(5-chloro-1H-pyrrolo[2,3-b]pyridin-3-yl)-5-fluoropyrimidin-4-ylamino)methyl)morpholine-4-carboxamide]	5 to 20 µM	< 5 µM	–
CCNC(=O)N1CCOCC1CNc1nc(-c2c[nH]c3ncc(Cl)cc23)ncc1F (stereo not shown) [Compound 535, 3-((2-(5-chloro-1H-pyrrolo[2,3-b]pyridin-3-yl)-5-fluoropyrimidin-4-ylamino)methyl)-N-ethylmorpholine-4-carboxamide]	5 to 20 µM	> 10 µM	–
CC(C)NC(=O)N1CCOCC1CNc1nc(-c2c[nH]c3ncc(Cl)cc23)ncc1F (stereo not shown) [Compound 536, 3-((2-(5-chloro-1H-pyrrolo[2,3-b]pyridin-3-yl)-5-fluoropyrimidin-4-ylamino)methyl)-N-isopropylmorpholine-4-carboxamide]	5 to 20 µM	> 10 µM	–
COCC(O)CN1CCCC(Nc2nc(-c3c[nH]c4ncc(Cl)cc34)ncc2F)C1 [Compound 537, 1-((S)-3-((2-(5-chloro-1H-pyrrolo[2,3-b]pyridin-3-yl)-5-fluoropyrimidin-4-ylamino)piperidin-1-yl)-3-methoxypropan-2-ol]	< 5 µM	< 5 µM	–
CC[C@H](O)CN1CCCC(Nc2nc(-c3c[nH]c4ncc(Cl)cc34)ncc2F)C1 (stereo partly shown) [Compound 538]	< 5 µM	< 5 µM	–
NC1CCCC(Nc2nc(-c3c[nH]c4ncc(Cl)cc34)ncc2F)C1 (stereo not drawn) [Compound 540, N-[2-(5-chloro-1H-pyrrolo[5,4-b]pyridin-3-yl)-5-fluoro-pyrimidin-4-yl]cyclohexane-cis-1,3-diamine]	< 5 µM	< 5 µM	–
N[C@H]1CCC[C@@H](Nc2nc(-c3c[nH]c4ncc(Cl)cc34)ncc2F)C1 [Compound 542, (1R,3S)—N1-[2-(5-chloro-1H-pyrrolo[2,3-b]pyridin-3-yl)-5-fluoro-pyrimidin-4-yl]cyclohexane-1,3-diamine]	5 to 20 µM	5 to 10 µM	–
O=C(O)[C@H]1CCCC[C@@H]1Nc1nc(-c2c[nH]c3ncc(Cl)cc23)ncc1F [Compound 553, (1S,2S)-2-[[2-(5-chloro-1H-pyrrolo[5,4-b]pyridin-3-yl)-5-fluoro-pyrimidin-4-yl]amino]cyclohexane-1-carboxylic acid]	< 5 µM	< 5 µM	–
CCOC(=O)[C@@H]1CCCC[C@H]1Nc1nc(-c2c[nH]c3ncc(Cl)cc23)ncc1F [Compound 560, (1R,2R)-ethyl 2-(2-(5-chloro-1H-pyrrolo[2,3-b]pyridin-3-yl)-5-fluoropyrimidin-4-ylamino)cyclohexanecarboxylate]	> 10 µM	> 10 µM	–
CCOC(=O)[C@H]1CCCC[C@@H]1Nc1nc(-c2c[nH]c3ncc(Cl)cc23)ncc1F [Compound 561, (1S,2S)-ethyl 2-(2-(5-chloro-1H-pyrrolo[2,3-b]pyridin-3-yl)-5-fluoropyrimidin-4-ylamino)cyclohexanecarboxylate]	5 to 20 µM	< 5 µM	–

SMILES	IC50 [1, 3]	EC50 [2, 4]	further results
CC1(O)CCCCC1Nc1nc(-c2c[nH]c3ncc(Cl)cc23)ncc1F (stereo not shown) [Compound 562, 2-(2-(5-chloro-1H-pyrrolo[2,3-b]pyridin-3-yl)-5-fluoropyrimidin-4-ylamino)-1-methylcyclohexanol]	> 10 µM	< 5 µM	–
O=C(O)[C@H]1CC[C@@H](Nc2nc(-c3c[nH]c4ncc(Cl)cc34)ncc2F)C1 [Compound 565]	5 to 20 µM	< 5 µM	–
O=C(O)[C@@H]1CC[C@H](Nc2nc(-c3c[nH]c4ncc(Cl)cc34)ncc2F)C1 [Compound 566]	< 5 µM	< 5 µM	–
NC(=O)CN1CCC[C@H](Nc2nc(-c3c[nH]c4ncc(Cl)cc34)ncc2F)C1 [Compound 567]	< 5 µM	< 5 µM	–
CC(C)OC(=O)[C@@H]1CCCC[C@H]1Nc1nc(-c2c[nH]c3ncc(Cl)cc23)ncc1F [Compound 568, (1R,2R)-isopropyl 2-(2-(5-chloro-1H-pyrrolo[2,3-b]pyridin-3-yl)-5-fluoropyrimidin-4-ylamino)cyclohexanecarboxylate]	> 10 µM	> 10 µM	–
CC(C)OC(=O)[C@H]1CCCC[C@@H]1Nc1nc(-c2c[nH]c3ncc(Cl)cc23)ncc1F [Compound 569, (1S,2S)-isopropyl 2-(2-(5-chloro-1H-pyrrolo[2,3-b]pyridin-3-yl)-5-fluoropyrimidin-4-ylamino)cyclohexanecarboxylate]	> 10 µM	> 10 µM	–
COC(=O)N[C@@H]1CCC[C@H](Nc2nc(-c3c[nH]c4ncc(Cl)cc34)ncc2F)C1 [Compound 570, methyl N-[(1R,3S)-3-[[2-(5-chloro-1H-pyrrolo[2,3-b]pyridin-3-yl)-5-fluoro-pyrimidin-4-yl]amino]cyclohexyl]carbamate]	< 5 µM	< 5 µM	–
CC1(O)CCC[C@H](Nc2nc(-c3c[nH]c4ncc(Cl)cc34)ncc2F)C1 (stereo partly shown) [Compound 571]	–	–	IC50 [1, 5]: < 5 µM; EC50 [2, 6]: < 5 µM
CC1(O)CCC[C@H](Nc2nc(-c3c[nH]c4ncc(Cl)cc34)ncc2F)C1 (stereo partly shown) [Compound 572]	–	–	IC50 [1, 5]: < 5 µM; EC50 [2, 6]: < 5 µM
O=C(O)[C@@H]1CCCC[C@@H]1Nc1nc(-c2c[nH]c3ncc(Cl)cc23)ncc1F [Compound 578, (1R,2S)-2-(2-(5-chloro-1H-pyrrolo[2,3-b]pyridin-3-yl)-5-fluoropyrimidin-4-ylamino)cyclohexanecarboxylic acid]	< 5 µM	< 5 µM	–
OC[C@@H](O)CN1CCCC(Nc2nc(-c3c[nH]c4ncc(Cl)cc34)ncc2F)C1 (stereo partly shown) [Compound 587]	< 5 µM	< 5 µM	–
COCC(=O)N[C@@H]1CCC[C@H](Nc2nc(-c3c[nH]c4ncc(Cl)cc34)ncc2F)C1 [Compound 591, N-[(1R,3S)-3-[[2-(5-chloro-1H-pyrrolo[2,3-b]pyridin-3-yl)-5-fluoro-pyrimidin-4-yl]amino]cyclohexyl]-2-methoxy-acetamide]	< 5 µM	< 5 µM	–
Fc1cnc(-c2c[nH]c3ncc(Cl)cc23)nc1NC1CCCN(Cc2cnc[nH]2)C1 (stereo not shown) [Compound 594, N-(1-((1H-imidazol-5-yl)methyl)piperidin-3-yl)-2-(5-chloro-1H-pyrrolo[2,3-b]pyridin-3-yl)-5-fluoropyrimidin-4-amine]	< 5 µM	< 5 µM	–
COCCN1CCCC(Nc2nc(-c3c[nH]c4ncc(Cl)cc34)ncc2F)C1 (stereo not shown) [Compound 595]	–	–	IC50 [1, 7]: < 5 µM; EC50 [2, 8]: < 5 µM
CC(C)(C(N)=O)N1CCC[C@H](Nc2nc(-c3c[nH]c4ncc(Cl)cc34)ncc2F)C1 [Compound 598]	–	–	IC50 [1, 7]: < 5 µM; EC50 [2, 8]: < 5 µM
CNC(=O)C(C)(C)N1CCC[C@H](Nc2nc(-c3c[nH]c4ncc(Cl)cc34)ncc2F)C1 [Compound 599]	–	–	IC50 [1, 7]: < 5 µM; EC50 [2, 8]: < 5 µM
CN(C)C(=O)C(C)(C)N1CCC[C@H](Nc2nc(-c3c[nH]c4ncc(Cl)cc34)ncc2F)C1 [Compound 600]	–	–	IC50 [1, 7]: < 5 µM; EC50 [2, 8]: < 5 µM
